Where two headings read alike, the source gives them in different places.
Tested on: CFU-GM, BFU-E and CFU-GEMM progenitor cells
Conditions: 80 μg/kg s.c.

SMILES: c1cc(CN2CCCNCCNCCCNCC2)ccc1CN1CCCNCCNCCCNCC1 [AMD3100, 1,1′-[1,4-phenylene-bis(methylene)]-bis-1,4,8,11-tetraazacyclotetradecane]
- Cycling Status of Progenitors, BFU-E (P1, T = 1 h after injection): 0%
- Cycling Status of Progenitors, CFU-GEMM (P1, T = 1 h after injection): 0%
- Cycling Status of Progenitors, CFU-GM (P1, T = 1 h after injection): 1%
- Cycling Status of Progenitors, CFU-GM, AGAR Culture (P1, T = 1 h after injection): 0%
- Cycling Status of Progenitors, BFU-E (P1, T = 3 h after injection): 13%
- Cycling Status of Progenitors, CFU-GEMM (P1, T = 3 h after injection): 7%
- Cycling Status of Progenitors, CFU-GM (P1, T = 3 h after injection): 1%
- Cycling Status of Progenitors, CFU-GM, AGAR Culture (P1, T = 3 h after injection): 0%
- Cycling Status of Progenitors, BFU-E (P1, T = 6 h after injection): 0%
- Cycling Status of Progenitors, CFU-GEMM (P1, T = 6 h after injection): 0%
- Cycling Status of Progenitors, CFU-GM (P1, T = 6 h after injection): 0%
- Cycling Status of Progenitors, CFU-GM, AGAR Culture (P1, T = 6 h after injection): 0%
- Cycling Status of Progenitors, BFU-E (P1, T = 9 h after injection): 11%
- Cycling Status of Progenitors, CFU-GEMM (P1, T = 9 h after injection): 0%
- Cycling Status of Progenitors, CFU-GM (P1, T = 9 h after injection): 2%
- Cycling Status of Progenitors, BFU-E (P1, T = 24 h after injection): 0%
- Cycling Status of Progenitors, CFU-GEMM (P1, T = 24 h after injection): 0%
- Cycling Status of Progenitors, CFU-GM (P1, T = 24 h after injection): 0%
- Cycling Status of Progenitors, BFU-E (P2, T = 1 h after injection): 3%
- Cycling Status of Progenitors, CFU-GEMM (P2, T = 1 h after injection): 6%
- Cycling Status of Progenitors, CFU-GM (P2, T = 1 h after injection): 0%
- Cycling Status of Progenitors, CFU-GM, AGAR Culture (P2, T = 1 h after injection): 0%
- Cycling Status of Progenitors, BFU-E (P2, T = 3 h after injection): 0%
- Cycling Status of Progenitors, CFU-GEMM (P2, T = 3 h after injection): 0%
- Cycling Status of Progenitors, CFU-GM (P2, T = 3 h after injection): 2%
- Cycling Status of Progenitors, CFU-GM, AGAR Culture (P2, T = 3 h after injection): 1%
- Cycling Status of Progenitors, BFU-E (P2, T = 6 h after injection): 0%
- Cycling Status of Progenitors, CFU-GEMM (P2, T = 6 h after injection): 0%
- Cycling Status of Progenitors, CFU-GM (P2, T = 6 h after injection): 0%
- Cycling Status of Progenitors, CFU-GM, AGAR Culture (P2, T = 6 h after injection): 3%
- Cycling Status of Progenitors, BFU-E (P2, T = 9 h after injection): 0%
- Cycling Status of Progenitors, CFU-GEMM (P2, T = 9 h after injection): 4%
- Cycling Status of Progenitors, CFU-GM (P2, T = 9 h after injection): 0%
- Cycling Status of Progenitors, CFU-GM, AGAR Culture (P2, T = 9 h after injection): 0%
- Cycling Status of Progenitors, BFU-E (P2, T = 24 h after injection): 2%
- Cycling Status of Progenitors, CFU-GEMM (P2, T = 24 h after injection): 0%
- Cycling Status of Progenitors, CFU-GM (P2, T = 24 h after injection): 3%
- Cycling Status of Progenitors, CFU-GM, AGAR Culture (P2, T = 24 h after injection): 0%
- Cycling Status of Progenitors, BFU-E (P3, T = 1 h after injection): 0%
- Cycling Status of Progenitors, CFU-GEMM (P3, T = 1 h after injection): 0%
- Cycling Status of Progenitors, CFU-GM (P3, T = 1 h after injection): 0%
- Cycling Status of Progenitors, CFU-GM, AGAR Culture (P3, T = 1 h after injection): 0%
- Cycling Status of Progenitors, BFU-E (P3, T = 3 h after injection): 0%
- Cycling Status of Progenitors, CFU-GEMM (P3, T = 3 h after injection): 0%
- Cycling Status of Progenitors, CFU-GM (P3, T = 3 h after injection): 1%
- Cycling Status of Progenitors, CFU-GM, AGAR Culture (P3, T = 3 h after injection): 0%
- Cycling Status of Progenitors, BFU-E (P3, T = 6 h after injection): 0%
- Cycling Status of Progenitors, CFU-GEMM (P3, T = 6 h after injection): 0%
- Cycling Status of Progenitors, CFU-GM (P3, T = 6 h after injection): 0%
- Cycling Status of Progenitors, CFU-GM, AGAR Culture (P3, T = 6 h after injection): 3%
- Cycling Status of Progenitors, BFU-E (P3, T = 9 h after injection): 0%
- Cycling Status of Progenitors, CFU-GEMM (P3, T = 9 h after injection): 0%
- Cycling Status of Progenitors, CFU-GM (P3, T = 9 h after injection): 0%
- Cycling Status of Progenitors, CFU-GM, AGAR Culture (P3, T = 9 h after injection): 0%
- Cycling Status of Progenitors, BFU-E (P3, T = 24 h after injection): 0%
- Cycling Status of Progenitors, CFU-GEMM (P3, T = 24 h after injection): 0%
- Cycling Status of Progenitors, CFU-GM (P3, T = 24 h after injection): 0%
- Cycling Status of Progenitors, CFU-GM, AGAR Culture (P3, T = 24 h after injection): 0%
- Cycling Status of Progenitors, BFU-E (P4, T = 1 h after injection): 0%
- Cycling Status of Progenitors, CFU-GEMM (P4, T = 1 h after injection): 0%
- Cycling Status of Progenitors, CFU-GM (P4, T = 1 h after injection): 0%
- Cycling Status of Progenitors, CFU-GM, AGAR Culture (P4, T = 1 h after injection): 0%
- Cycling Status of Progenitors, BFU-E (P4, T = 3 h after injection): 9%
- Cycling Status of Progenitors, CFU-GEMM (P4, T = 3 h after injection): 0%

Reference: patent US10322111B2, “Chemokine receptor binding heterocyclic compounds with enhanced efficacy” (Genzyme Corporation, priority 2001, dated 2019)
